In paper PMC4122966, “Novel VCP modulators mitigate major pathologies of rd10, a mouse model of retinitis pigmentosa” (Scientific Reports, 2014):

Legend:
recombinant VCP = recombinant VCP (Homo sapiens, UniProt P55072); assay: ATPase activity of recombinant VCP in vitro (modified molybdate assay, [γ-32P]ATP); assay type: biochemical
Procedure: (§1) We measured ATPase activities by modifying the molybdate assay, which was as described previously. In the assay, 1 μg of whole cell soluble lysate of neuronally differentiated PC12 cells, or 500 ng recombinant VCP protein, was incubated in 20 μl of the ATPase assay buffer (20 mM HEPES (pH 7.4), 50 mM KCl, 5 mM MgCl2) with 100 μM [γ-^32P]ATP (18.5 GBq/mmol) (PerkinElmer) at 37°C for 20 min. After incubation, the reaction was quenched by addition of 200 μl of 8% ice-cold trichloroacetic acid solution with 1 mM K2HPO4, and then 50 μl of solution A (3.75% ammonium molybdate, 0.02 M silicotungstic acid in 3 N H2SO4) and 300 μl of n-butyl acetate were added to the reaction. The samples were mixed well and centrifuged at 12,000 × g for 1 min. Then, 200 μl aliquots from the upper organic phases were taken and their radioactivity was determined with a liquid scintillation counter for β-radiation, which determined the amounts of ^32P released.

cellular VCP functions = assay: immunoblot of ubiquitinated proteins, CHOP (ER stress) and LC3 (autophagy) in cultured cells; assay type: cell-based
From the text: (§2) Figure 1 Structures and characterization of KUSs, novel VCP modulators. (a) Structures and IC50 values of KUS11, KUS31, KUS69, KUS94, KUS121, and KUS187. […] (b) ATPase activity assays of recombinant human […], comparing KUSs and DBeQ. (c) Immunoblot analysis of ubiquitinated proteins, an ER stress marker (CHOP), and an autophagy indicator (LC3), comparing KUSs and DBeQ. As a control, MG132, a proteasome inhibitor, was used for the analysis. Actin served as a loading control. Complete scans of the different blots are presented in Supplementary Fig. 7. (d) Comparison of KUSs and DBeQ for cell death-inducing activities. HeLa cells were treated with 50 μM DBeQ or KUSs for 24 hours. […]

HeLa cells [1] = assay: cell death-inducing activity; assay type: cell-based; conditions: 50 μM, 24 hours
From the text: as §2

[2] = system: essentially all tested cultured cells; assay: cellular toxicity on cultured cells; assay type: cell-based; conditions: up to 50 μM
HeLa cells [3] = assay: immunocytochemistry of laminin γ1 aggregation in tunicamycin-treated cells; assay type: cell-based; conditions: HeLa, Tm 0.5 μg/ml, 5 hours, 50 μM KUS
Procedure: Figure 4 KUSs and ATP each prevented a decrease of ATP levels and ameliorated ER stress in tunicamycin-treated cells. (a) Immunocytochemical analyses of HeLa cells by an anti-laminin γ1 antibody. HeLa cells were treated with 0.5 μg/ml of tunicamycin (Tm) for 5 hours in the presence of KUSs (50 μM), ATP (0.1, 0.3, and 1 mM), methylpyruvate (MePyr) (3 and 10 mM), or vehicle alone (DMSO). Then, cells were fixed and subjected to immunocytochemical analyses. Normally growing HeLa cells were also analyzed (Control). Scale bar, 10 μm. (b) Measurements of the relative amounts of ATP per cell. HeLa cells were treated with tunicamycin (Tm, 0.5 μg/ml) for 24 hours in the presence of KUSs (50 μM) or ATP (0.1 and 1 mM), or vehicle alone (DMSO), and were harvested. Then, ATP amounts from 1.5 × 10^5 cells were measured. * P < 0.05, ** P < 0.01. Error bars indicate SD. (c) Western blot analyses on CHOP. HeLa cells were treated with 0.5 μg/ml of tunicamycin for 5 hours in the presence of KUSs (50 μM), ATP (0.1, 0.3, and 1 mM), methylpyruvate (MePyr) (3 and 10 mM), or vehicle alone (-). Then, cells were harvested and subjected to western blot analyses. Actin served as a loading control. Complete scans of the different blots are presented in Supplementary Fig. 9.

[4] = system: whole cell soluble lysate of neuronally differentiated PC12 cells; assay: total ATPase activity in clarified whole cell lysates; assay type: biochemical; conditions: 1 μM compound
Procedure: Figure 3 Effects of KUSs on ATPase activities, ATP levels, and acetyl-CoA levels. (a) Inhibition of ATPase activity in clarified whole cell lysates by KUS121, KUS187, and KUS94, but not KUS11. Total ATPase activities in clarified whole cell lysates from differentiated PC12 cells were measured in the absence and presence of KUSs. Relative ATPase activities are shown with values in the absence of KUS (D: DMSO) set at 100%. (b) HeLa cells were cultured in medium with low glucose (0.25 g/l) for 20 hours, with or without KUSs, and ATP levels were measured with luciferase assays. (c) HeLa cells were cultured in medium with low glucose (0.25 g/l) for 20 hours, with or without KUSs, and acetyl-CoA levels were measured. * P < 0.05, ** P < 0.01, *** P < 0.001 vs. DMSO control (Dunnett's test, n = 3).
as §1

Sequence of recombinant VCP (P55072 whole entry, species assumed): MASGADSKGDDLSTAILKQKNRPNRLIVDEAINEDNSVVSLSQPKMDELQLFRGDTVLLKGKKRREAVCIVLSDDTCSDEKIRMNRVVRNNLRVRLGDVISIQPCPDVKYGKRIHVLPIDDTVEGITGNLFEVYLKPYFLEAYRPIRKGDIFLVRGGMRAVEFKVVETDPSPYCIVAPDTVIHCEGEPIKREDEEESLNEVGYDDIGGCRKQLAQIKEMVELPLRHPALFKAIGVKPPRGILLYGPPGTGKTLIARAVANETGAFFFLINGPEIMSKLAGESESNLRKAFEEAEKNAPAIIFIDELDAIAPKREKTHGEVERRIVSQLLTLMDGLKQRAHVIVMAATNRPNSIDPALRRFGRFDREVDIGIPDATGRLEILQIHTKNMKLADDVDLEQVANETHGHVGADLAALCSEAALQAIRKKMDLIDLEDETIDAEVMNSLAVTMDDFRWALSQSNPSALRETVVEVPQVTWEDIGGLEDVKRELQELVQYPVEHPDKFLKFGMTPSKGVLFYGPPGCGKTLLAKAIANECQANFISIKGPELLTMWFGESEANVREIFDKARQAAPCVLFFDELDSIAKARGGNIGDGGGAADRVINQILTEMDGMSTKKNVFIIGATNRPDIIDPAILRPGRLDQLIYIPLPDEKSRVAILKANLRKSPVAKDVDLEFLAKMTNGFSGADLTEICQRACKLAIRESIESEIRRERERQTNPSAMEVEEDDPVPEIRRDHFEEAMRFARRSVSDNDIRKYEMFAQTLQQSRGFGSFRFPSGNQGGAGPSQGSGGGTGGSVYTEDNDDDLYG

Row | SMILES | IC50 (recombinant VCP) [nM] | induction of accumulation of ubiquitinated proteins, ER stress (CHOP), autophagy (LC3) (cellular VCP functions) | induction of cell death (HeLa cells [1]) | apparent cellular toxicity [2] | aggregation of laminin γ1 (HeLa cells [3]) | lowering of total ATPase activity [4]
1 | Nc1c(/N=N/c2ccc(-c3ccccc3)nc2)cc(S(=O)(=O)O)c2ccccc12 [KUS31] | 229 | did not induce any of these phenotypes | did not induce any of these phenotypes | did not manifest any apparent cellular toxicity |  | 
2 | Nc1c(/N=N/c2ccc(-c3ccccc3-c3ccccc3)nc2)cc(S(=O)(=O)O)c2ccccc12 [KUS69] | 116 | did not induce any of these phenotypes | did not induce any of these phenotypes | did not manifest any apparent cellular toxicity | clearly prevented the aggregation of laminin γ1 | 
3 | Nc1c(/N=N/c2ccc(-c3cccc4c3sc3ccccc34)nc2)cc(S(=O)(=O)O)c2ccccc12 [KUS94] | 1000 | did not induce any of these phenotypes | did not induce any of these phenotypes | did not manifest any apparent cellular toxicity | clearly prevented the aggregation of laminin γ1 | approximately 20%
